Source: PubChem BioAssay AID1963825 (Molecular Pharmacology Branch, DTP, NCI, 2024)

Test: Anticancer human tumor 997537-175-T-J1-PDC patient-derived colon adenocarcinoma cell line growth inhibition [POLQ]
Details: 997537-175-T-J1-PDC complex spheroid viability, combination with POLQ inhibitors; for IC50: curve of first compound; for viability, T/C: stronger effect = lower value
Method in brief: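 Complex spheroid viability model combining PDC tumour cells with endothelial (HUVEC) and MSC stromal cells. Novobiocin, ART-558 or RP6685 were tested singly and in combination with standard and investigational anticancer drugs. Each was titrated in half-log steps from near clinical Cmax, or from 10 microM where Cmax was unknown.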

[1] = second compound 0.0316 µM, first compound 0.0316 µM
[2] = second compound 0.0316 µM, first compound 0.1 µM
[3] = second compound 0.0316 µM, first compound 0.316 µM
[4] = second compound 0.0316 µM, first compound 1 µM
[5] = second compound 0.0316 µM, first compound 3.16 µM
[6] = second compound 0.0316 µM, first compound 10 µM
[7] = second compound 0.1 µM, first compound 0.0316 µM
[8] = second compound 0.1 µM, first compound 0.1 µM
[9] = second compound 0.1 µM, first compound 0.316 µM
[10] = second compound 0.1 µM, first compound 1 µM
[11] = second compound 0.1 µM, first compound 3.16 µM
[12] = second compound 0.1 µM, first compound 10 µM
[13] = second compound 0.316 µM, first compound 0.0316 µM
[14] = second compound 0.316 µM, first compound 0.1 µM
[15] = second compound 0.316 µM, first compound 0.316 µM
[16] = second compound 0.316 µM, first compound 1 µM
[17] = second compound 0.316 µM, first compound 3.16 µM
[18] = second compound 0.316 µM, first compound 10 µM
[19] = second compound 1 µM, first compound 0.0316 µM
[20] = second compound 1 µM, first compound 0.1 µM
[21] = second compound 1 µM, first compound 0.316 µM
[22] = second compound 1 µM, first compound 1 µM
[23] = second compound 1 µM, first compound 3.16 µM
[24] = second compound 1 µM, first compound 10 µM
[25] = second compound 3.16 µM, first compound 0.0316 µM
[26] = second compound 3.16 µM, first compound 0.1 µM
[27] = second compound 3.16 µM, first compound 0.316 µM
[28] = second compound 3.16 µM, first compound 1 µM
[29] = second compound 3.16 µM, first compound 3.16 µM
[30] = second compound 3.16 µM, first compound 10 µM
[31] = second compound 10 µM, first compound 0.0316 µM
[32] = second compound 10 µM, first compound 0.1 µM
[33] = second compound 10 µM, first compound 0.316 µM
[34] = second compound 10 µM, first compound 1 µM
[35] = second compound 10 µM, first compound 3.16 µM
[36] = second compound 10 µM, first compound 10 µM
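Further: luminescence signal used as a surrogate for viable cells; spheroids exposed to drugs for seven days before readout.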

CC1COCCN1c1cc(C2(O)CC3CCC(C2)O3)c2cnn(-c3ccn[nH]3)c2n1 (centres undefined) + Cc1cccc(N(C)C(=O)C2C(O)CCN2c2nc(C)cc(C(F)(F)F)c2C#N)c1
IC50 (second compound 0.0316 µM): > 10 µM
IC50 (second compound 0.1 µM): 3.16 µM
IC50 (second compound 0.316 µM): 0.936 µM
IC50 (second compound 1 µM): > 10 µM
IC50 (second compound 3.16 µM): > 10 µM
IC50 (second compound 10 µM): 3.99 µM
viability, T/C [1]: 79.8%
viability, T/C [2]: 96%
viability, T/C [3]: 60%
viability, T/C [4]: 52.8%
viability, T/C [5]: 58.3%
viability, T/C [6]: 39%
viability, T/C [7]: 94.8%
viability, T/C [8]: 94.2%
viability, T/C [9]: 48.6%
viability, T/C [10]: 42.4%
viability, T/C [11]: 66.4%
viability, T/C [12]: 53.9%
viability, T/C [13]: 76.5%
viability, T/C [14]: 66.8%
viability, T/C [15]: 54.8%
viability, T/C [16]: 45.9%
viability, T/C [17]: 53.8%
viability, T/C [18]: 47.6%
viability, T/C [19]: 86.8%
viability, T/C [20]: 81.9%
viability, T/C [21]: 43.2%
viability, T/C [22]: 57.3%
viability, T/C [23]: 81.9%
viability, T/C [24]: 64.7%
viability, T/C [25]: 84.3%
viability, T/C [26]: 59.9%
viability, T/C [27]: 62.8%
viability, T/C [28]: 54.1%
viability, T/C [29]: 54.5%
viability, T/C [30]: 75.8%
viability, T/C [31]: 92.3%
viability, T/C [32]: 69%
viability, T/C [33]: 61.4%
viability, T/C [34]: 47.4%
viability, T/C [35]: 58.1%
viability, T/C [36]: 44.8%

COc1cccc2c1C(=O)c1c(O)c3c(c(O)c1C2=O)CC(O)(C(=O)CO)CC3OC1CC(N)C(O)C(C)O1 (centres undefined) + Nc1ccc(C#CCN(C(=O)Cc2ncc(C(F)(F)F)cc2C(F)(F)F)c2ccc(F)cc2)nn1
IC50 (second compound 0.0316 µM): 3.2 µM
IC50 (second compound 0.1 µM): 1.92 µM
IC50 (second compound 0.316 µM): 3.54 µM
IC50 (second compound 1 µM): 2.12 µM
IC50 (second compound 3.16 µM): 2.85 µM
IC50 (second compound 10 µM): 2.14 µM
viability, T/C [1]: 102%
viability, T/C [2]: 97.5%
viability, T/C [3]: 89.1%
viability, T/C [4]: 93.5%
viability, T/C [5]: 50.4%
viability, T/C [6]: 12.2%
viability, T/C [7]: 99.4%
viability, T/C [8]: 114%
viability, T/C [9]: 99.9%
viability, T/C [10]: 70.6%
viability, T/C [11]: 34.4%
viability, T/C [12]: 7.13%
viability, T/C [13]: 110%
viability, T/C [14]: 109%
viability, T/C [15]: 98.8%
viability, T/C [16]: 87.7%
viability, T/C [17]: 53.2%
viability, T/C [18]: 13.9%
viability, T/C [19]: 94.1%
viability, T/C [20]: 109%
viability, T/C [21]: 81.8%
viability, T/C [22]: 79.5%
viability, T/C [23]: 34.8%
viability, T/C [24]: 10.2%
viability, T/C [25]: 94.4%
viability, T/C [26]: 107%
viability, T/C [27]: 72.6%
viability, T/C [28]: 78.8%
viability, T/C [29]: 46.6%
viability, T/C [30]: 8.26%
viability, T/C [31]: 94.7%
viability, T/C [32]: 97.9%
viability, T/C [33]: 91.4%
viability, T/C [34]: 80%
viability, T/C [35]: 34.8%
viability, T/C [36]: 10.1%
